Assay results reported in US20260102383A1, “LPAR1 Inhibitors” (AbbVie Inc., priority 2024, published 2026).

Target: T1, human LPAR1 (Homo sapiens, UniProt Q92633)
T1 construct: host or cells: TangoEDG2-bla U2OS cells
Experiment: Arrestin assay (Arrestin Reporter EDG2-bla U2OS), inhibition of LPA-stimulated signal
Type: cell-based
Details: TangoEDG2-bla U2OS cells expressing human LPAR1; 0.25 μM LPA; read-out: Arrestin Reporter EDG2-bla U2OS Human Merged IC50
Description: The inhibitory activity of compounds 15, 62, 77, 84 and 169 against LPAR1 was measured using an Arrestin assay in U2OS cells expressing human LPAR1.
FreeStyle media was warmed in a 37° C. water bath. Cryo-preserved vial(s) of TangoEDG2-bla U2OS cells were rapidly thawed in a 37° C. water bath. The thawed cells were added to FreeStyle media and cells were pelleted at 300×g for 5 minutes. The supernatant was aspirated, and cells were resuspended in FreeStyle media. Cell density was adjusted to 0.25×10^6 cells/mL. Cells (1×10^4 in 40 μL) were added to each well of Greiner 384 well black cell plate(s). Cell plate(s) were placed in a humidified 37° C./5% CO2 incubator for 18-20 hours. Dilutions of test compound were prepared at 6× final concentration; 12-point, 3-fold dilutions using HH Buffer (1×HBSS plus 20 mM HEPES). The 6× test compound was then added to the cell plate(s) at 10 μL/well. The final concentration ranged from 10 μM to 0.00006 μM. Cell plate(s) were incubated in a humidified 37° C./5% CO2 incubator for 1 hour. During the incubation, 6×LPA was prepared at 1.5 μM in 0.1% BSA HH Buffer. After the 1-hour incubation of test compound with cells, the LPA was added to the cell plate(s) at 10 μL/well (final LPA concentration of 0.25 μM). Cell plate(s) were returned to a humidified 37° C./5% CO2 incubator for 3 hours. The Development solution was made up per the LiveBLAzerFRET B/G kit protocol. The Development solution was added to the cell plate(s) at 10 μL/well. Cell plates were incubated in the dark at room temperature for 2 hours. Plate(s) were read on an Envision Plate Reader (Perkin Elmer) to read fluorescence; excitation at 409 nm with emission at 460 nm and 530 nm. Raw Data for analysis is the ratio of emission at 460 nm divided by emission 530 nm. The formula used to determine % Inhibition is as follows (1−(Raw Data−Low Average)/(High Average−Low Average))*100. Percent Inhibition was plotted to determine IC50 value with GraphPad Prism 9.5.0 software using Variable slope 4-parameter curve fit analysis.
Additional compounds of the present disclosure were synthesized in a manner similar to the compounds described above and understood by a person of ordinary skill in the art. The inhibitory activity of the compounds of the present disclosure against LPAR1 was measured using the above-referenced Arrestin Assay protocol.

T1 sequence (Q92633 whole entry): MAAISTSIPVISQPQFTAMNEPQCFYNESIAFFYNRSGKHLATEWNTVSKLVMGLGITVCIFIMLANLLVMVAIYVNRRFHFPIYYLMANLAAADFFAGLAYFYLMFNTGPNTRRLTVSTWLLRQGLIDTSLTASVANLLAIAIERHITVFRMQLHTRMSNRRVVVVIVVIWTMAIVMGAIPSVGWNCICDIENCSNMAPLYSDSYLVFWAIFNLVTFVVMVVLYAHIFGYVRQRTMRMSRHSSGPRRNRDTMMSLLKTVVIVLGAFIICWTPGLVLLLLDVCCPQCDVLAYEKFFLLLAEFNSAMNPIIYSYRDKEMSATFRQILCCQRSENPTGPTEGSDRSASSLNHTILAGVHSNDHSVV

Structure (SMILES) | IC50
CC(C)c1ccnn1C1(C(=O)Nc2ccc(Cl)cc2OC(F)F)CCN(CC(C)(C)C(=O)O)CC1 [Compound 83, 3-[4-[[4-chloro-2-(difluoromethoxy)phenyl]carbamoyl]-4-(5-isopropylpyrazol-1-yl)-1-piperidyl]-2,2-dimethyl-propanoic acid] | 24.4 nM
CC(C)c1ccnn1C1(C(=O)Nc2ccc(Cl)cc2OC(F)F)CCN(C[C@@H](C(=O)O)C2CCOCC2)CC1 (single isomer, unassigned) [Compound 14, (2.5)-3-[4-[[4-chloro-2-(difluoromethoxy)phenyl]carbamoyl]-4-(5-isopropylpyrazol-1-yl)-1-piperidyl]-2-tetrahydropyran-4-yl-propanoic acid] | 33.9 nM
CC(=O)N1CCC(CN2CCC(C(=O)Nc3ccc(Cl)cc3OC(F)F)(n3nccc3C(C)C)CC2)(C(=O)O)CC1 [Compound 5, 1-acetyl-4-[[4-[[4-chloro-2-(difluoromethoxy)phenyl]carbamoyl]-4-(5-isopropylpyrazol-1-yl)-1-piperidyl]methyl]piperidine-4-carboxylic acid] | 87.3 nM
CC(C)c1ccnn1C1(C(=O)Nc2ccc(Cl)cc2OC(F)F)CCN(CC2(C(=O)O)CCN(C(=O)C3CCOCC3)CC2)CC1 [Compound 71, 4-[[4-[[4-chloro-2-(difluoromethoxy)phenyl]carbamoyl]-4-(5-isopropylpyrazol-1-yl)-1-piperidyl]methyl]-1-(tetrahydropyran-4-carbonyl)piperidine-4-carboxylic acid] | 105 nM
CC(C)c1c(F)cnn1C1(C(=O)Nc2ccc(Cl)cc2OC(F)F)CCN(CC2(C(=O)O)CCOCC2)CC1 [Compound 66, 4-[[4-[[4-chloro-2-(difluoromethoxy)phenyl]carbamoyl]-4-(4-fluoro-5-isopropyl-pyrazol-1-yl)-1-piperidyl]methyl]tetrahydropyran-4-carboxylic acid] | 22.8 nM
CCOC(=O)N1CCC(CN2CCC(C(=O)Nc3ccc(Cl)cc3OC(F)F)(n3ncc(OC)c3C(C)C)CC2)(C(=O)O)CC1 [Compound 99, 4-[[4-[[4-chloro-2-(difluoromethoxy)phenyl]carbamoyl]-4-(5-isopropyl-4-methoxy-pyrazol-1-yl)-1-piperidyl]methyl]-1-ethoxycarbonyl-piperidine-4-carboxylic acid] | 32.1 nM
CC(C)c1ccnn1C1(C(=O)Nc2ccc(Cl)cc2OC(F)F)CCN(CC2(C(=O)O)CCOCC2)CC1 [Compound 3, 4-[[4-[[4-chloro-2-(difluoromethoxy)phenyl]carbamoyl]-4-(5-isopropylpyrazol-1-yl)-1-piperidyl]methyl]tetrahydropyran-4-carboxylic acid] | 14.7 nM
COCC(OC)C(=O)N1CCC(CN2CCC(C(=O)Nc3ccc(Cl)cc3OC(F)F)(n3nccc3C(C)C)CC2)(C(=O)O)CC1 (centres unmarked) [Compound 60, 4-[[4-[[4-chloro-2-(difluoromethoxy)phenyl]carbamoyl]-4-(5-isopropylpyrazol-1-yl)-1-piperidyl]methyl]-1-(2,3-dimethoxypropanoyl) piperidine-4-carboxylic acid] | 91.2 nM
COC1(C(=O)N2CCC(CN3CCC(C(=O)Nc4ccc(Cl)cc4OC(F)F)(n4nccc4C(C)C)CC3)(C(=O)O)CC2)CC1 [Compound 58, 4-[[4-[[4-chloro-2-(difluoromethoxy)phenyl]carbamoyl]-4-(5-isopropylpyrazol-1-yl)-1-piperidyl]methyl]-1-(1-methoxycyclopropanecarbonyl) piperidine-4-carboxylic acid] | 75.6 nM
CC(C)c1ccnn1C1(C(=O)Nc2ccc(Cl)cc2OC(F)F)CCN([C@H]2C[C@@H](C(=O)O)C2)CC1 (single isomer, unassigned) [Compound 61, (1s,3s)-3-[4-[[4-chloro-2-(difluoromethoxy)phenyl]carbamoyl]-4-(5-isopropylpyrazol-1-yl)-1-piperidyl]cyclobutanecarboxylic acid] | 34.5 nM
CC(C)c1ccnn1C1(C(=O)Nc2ccc(Cl)cc2OC(F)F)CCN(CC2(C(=O)O)CCCO2)CC1 (centres unmarked) [Compound 13, 2-[[4-[[4-chloro-2-(difluoromethoxy)phenyl]carbamoyl]-4-(5-isopropylpyrazol-1-yl)-1-piperidyl]methyl] tetrahydrofuran-2-carboxylic acid] | 11.2 nM

The remaining lines, values ahead:

IC50 | Structure (SMILES)
28.8 nM | CC(C)c1ccnn1C1(C(=O)Nc2ccc(Cl)cc2OC(F)F)CCN(C[C@@H](CC#N)C(=O)O)CC1 [Compound 168, (2R)-2-[[4-[[4-chloro-2-(difluoromethoxy)phenyl]carbamoyl]-4-(5-isopropylpyrazol-1-yl)-1-piperidyl]methyl]-3-cyano-propanoic acid]
15.6 nM | CC(C)c1ccnn1C1(C(=O)Nc2ccc(Cl)cc2OC(F)F)CCN(CC(CC#N)C(=O)O)CC1 (centres unmarked) [Compound 146, 2-[[4-[[4-chloro-2-(difluoromethoxy)phenyl]carbamoyl]-4-(5-isopropylpyrazol-1-yl)-1-piperidyl]methyl]-3-cyano-propanoic acid]
95.5 nM | CC1(C)OCc2cnn(C3(C(=O)Nc4ccc(Cl)cc4OC(F)F)CCN(C[C@H](C(=O)O)C4CCOCC4)CC3)c21 [Compound 176, (2R)-3-[4-[[4-chloro-2-(difluoromethoxy)phenyl]carbamoyl]-4-(6,6-dimethyl-4H-furo[3,4-c]pyrazol-1-yl)-1-piperidyl]-2-tetrahydropyran-4-yl-propanoic acid]
33.6 nM | CC(C)c1c(F)cnn1C1(C(=O)Nc2ccc(Cl)cc2OC(F)F)CCN(C[C@@H](CO)C(=O)O)CC1 [Compound 209, (2S)-2-[[4-[[4-chloro-2-(difluoromethoxy)phenyl]carbamoyl]-4-(4-fluoro-5-isopropyl-pyrazol-1-yl)-1-piperidyl]methyl]-3-hydroxy-propanoic acid]
14.2 nM | CCOC[C@@H](CN1CCC(C(=O)Nc2ccc(Cl)cc2OC(F)F)(n2nccc2C(C)C)CC1)C(=O)O [Compound 231, (2R)-2-[[4-[[4-chloro-2-(difluoromethoxy)phenyl]carbamoyl]-4-(5-isopropylpyrazol-1-yl)-1-piperidyl]methyl]-3-ethoxy-propanoic acid]
137 nM | CC(C)c1ccnn1C1(C(=O)Nc2ccc(Cl)cc2OC(F)F)CCN(C[C@@H](C(=O)O)N2CCOC(C)(C)C2)CC1 [Compound 165, (2S)-3-[4-[[4-chloro-2-(difluoromethoxy)phenyl]carbamoyl]-4-(5-isopropylpyrazol-1-yl)-1-piperidyl]-2-(2,2-dimethylmorpholin-4-yl)propanoic acid]
164 nM | CC1(C)COc2cnn(C3(C(=O)Nc4ccc(Cl)cc4OC(F)F)CCN([C@H]4C[C@@H](C(=O)O)C4)CC3)c21 [Compound 103, (1s,3s)-3-[4-[[4-chloro-2-(difluoromethoxy)phenyl]carbamoyl]-4-(6,6-dimethyl-5H-furo[3,2-c]pyrazol-1-yl)-1-piperidyl]cyclobutanecarboxylic acid]
174 nM | CC(C)c1ccnn1C1(C(=O)Nc2ccc(Cl)cc2OC(F)F)CCN(Cc2c(C(=O)O)nnn2C)CC1 [Compound 179, 5-[[4-[[4-chloro-2-(difluoromethoxy)phenyl]carbamoyl]-4-(5-isopropylpyrazol-1-yl)-1-piperidyl]methyl]-1-methyl-triazole-4-carboxylic acid]
39.4 nM | CC(C)c1ccnn1C1(C(=O)Nc2ccc(Cl)cc2OC(F)F)CCN(C[C@H](CO)C(=O)O)CC1 [Compound 183, (2R)-2-[[4-[[4-chloro-2-(difluoromethoxy)phenyl]carbamoyl]-4-(5-isopropylpyrazol-1-yl)-1-piperidyl]methyl]-3-hydroxy-propanoic acid]
47.9 nM | CC(C)c1ccnn1C1(C(=O)Nc2ccc(Cl)cc2OC(F)F)CCN(C[C@@H](C(=O)O)[C@@H](C)O)CC1 [Compound 222, (2R,3R)-2-[[4-[[4-chloro-2-(difluoromethoxy)phenyl]carbamoyl]-4-(5-isopropylpyrazol-1-yl)-1-piperidyl]methyl]-3-hydroxy-butanoic acid]
33.4 nM | COCC[C@H](CN1CCC(C(=O)Nc2ccc(Cl)cc2OC(F)F)(n2ncc(F)c2C(C)C)CC1)C(=O)O [Compound 191, (2R)-2-[[4-[[4-chloro-2-(difluoromethoxy)phenyl]carbamoyl]-4-(4-fluoro-5-isopropyl-pyrazol-1-yl)-1-piperidyl]methyl]-4-methoxy-butanoic acid]
16.6 nM | CCOC[C@H](CN1CCC(C(=O)Nc2ccc(Cl)cc2OC(F)F)(n2nccc2C(C)C)CC1)C(=O)O [Compound 228, (2S)-2-[[4-[[4-chloro-2-(difluoromethoxy)phenyl]carbamoyl]-4-(5-isopropylpyrazol-1-yl)-1-piperidyl]methyl]-3-ethoxy-propanoic acid]
